Reference: patent US10899738B2 (THE REGENTS OF THE UNIVERSITY OF MICHIGAN, priority 2016, dated 2021)

target: menin protein (Homo sapiens (Human), UniProt O00255); assay: biochemical; assay type: binding; conditions: FP competitive binding; menin protein 4 nM, FAM-MM2 probe 2 nM
Method in brief: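 Competitive fluorescence polarization assay using FAM-labelled MLL1 peptide probe FAM-MM2 (2 nM final) preincubated with menin (4 nM final) in PBS with 0.02% bovine γ-globulin, 4% DMSO and 0.01% Triton X-100. Compounds were added and incubated 30 min at room temperature. IC50 came from nonlinear regression of competition curves, with Ki also derived.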

Sequence of menin protein (O00255 whole entry): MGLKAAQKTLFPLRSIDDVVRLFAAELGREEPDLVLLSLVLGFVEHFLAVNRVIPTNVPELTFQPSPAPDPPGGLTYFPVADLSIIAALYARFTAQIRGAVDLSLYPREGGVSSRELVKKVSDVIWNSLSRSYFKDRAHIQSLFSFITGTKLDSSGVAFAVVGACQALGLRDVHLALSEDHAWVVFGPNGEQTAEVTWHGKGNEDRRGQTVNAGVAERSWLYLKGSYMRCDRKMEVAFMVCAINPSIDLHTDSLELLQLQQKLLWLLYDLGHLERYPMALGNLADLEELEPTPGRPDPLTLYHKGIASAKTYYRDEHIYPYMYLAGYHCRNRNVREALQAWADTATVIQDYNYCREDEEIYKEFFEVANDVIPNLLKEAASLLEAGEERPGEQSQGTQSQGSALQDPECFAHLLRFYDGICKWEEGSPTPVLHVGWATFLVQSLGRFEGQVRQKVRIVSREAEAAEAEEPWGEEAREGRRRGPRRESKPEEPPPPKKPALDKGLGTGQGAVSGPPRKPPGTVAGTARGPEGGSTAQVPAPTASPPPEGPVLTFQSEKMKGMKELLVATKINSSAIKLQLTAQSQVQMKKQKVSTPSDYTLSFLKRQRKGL

| Menin Binding Affinity IC50 (μM) | SMILES |
| --- | --- |
| No inhibition | O=S(=O)(c1ccc(-n2ccc(CN3CCC(C4(C5CCCC5)NCCc5c(F)cccc54)CC3)c2)cc1)C1CC1 (stereo not shown) [compound 123, 1-cyclopentyl-1-(1-((1-(4-(cyclopropylsulfonyl)phenyl)-1H-pyrrol-3-yl)methyl)piperidin-4-yl)-5-fluoro-1,2,3,4-tetrahydroisoquinoline] |

same assay, conditions: FP competitive binding; menin protein 4 nM, FAM-MM2 probe 2 nM; read-out: Menin Binding Affinity IC50

| SMILES | IC50 |
| --- | --- |
| CNC(=O)O[C@@H]1CCC[C@H]1C(C#N)(c1ccccc1)C1CCN(CC2CN(c3ccc(C(=O)OC)cc3)C2)CC1 (mixture of isomers) [compound 374, methyl rac-4-(3-((4-(cyano((1S,2R)-2-((methylcarbamoyl)oxy)cyclopentyl)(phenyl)methyl)piperidin-1-yl)methyl)azetidin-1-yl)benzoate] | 4.7 µM |
| CC(=O)N1CCCCC1C1(C2CCN(CCCOc3ccc(C#N)cc3)CC2)CN(C)Cc2ccccc21 (stereo not shown) [compound 297, 4-(3-(4-(4-(1-acetylpiperidin-2-yl)-2-methyl-1,2,3,4-tetrahydroisoquinolin-4-yl)piperidin-1-yl)propoxy)benzonitrile] | 2.1 µM |
| Cc1nccn1CC(c1ccccc1)(C1CCCC1)C1CCN(CCCOc2ccc(C#N)cc2)CC1 (stereo not shown) [compound 41, 4-(3-(4-(1-cyclopentyl-2-(2-methyl-1H-imidazol-1-yl)-1-phenylethyl)piperidin-1-yl)propoxy)benzonitrile] | 0.166 µM |
| CN1Cc2ccccc2C(c2ccccn2)(C2CCN(CC3CN(c4ccc(S(C)(=O)=O)cc4)C3)CC2)C1 (stereo not shown) [compound 170, 2-methyl-4-(1-((1-(4-(methylsulfonyl)phenyl)azetidin-3-yl)methyl)piperidin-4-yl)-4-(pyridin-2-yl)-1,2,3,4-tetrahydroisoquinoline] | 47.6 µM |
| CC(=O)O[C@H]1CCC[C@@H]1C(C#N)(c1ccccc1)C1CCN(CC2CN(c3ccc(C(=O)O)cc3)C2)CC1 (mixture of isomers) [compound 388, rac-4-(3-((4-(((1R,2S)-2-acetoxycyclopentyl)(cyano) (phenyl)methyl)piperidin-1-yl)methyl)azetidin-1-yl)benzoic acid] | 15.1 µM |
| CC(=O)O[C@H]1CCC[C@@H]1C(C#N)(c1cccc(F)c1)C1CCN(CC2CN(c3ccc(C#N)cc3)C2)CC1 (mixture of isomers) [compound 415, rac-(1S,2R)-2-(cyano(1-((1-(4-cyanophenyl)azetidin-3-yl)methyl)piperidin-4-yl)(3-fluorophenyl)methyl) cyclopentyl acetate] | 0.016 µM |
| N#Cc1ccc(OC2CC(N3CCC(C4(C5CCCC5)NCCc5ccccc54)CC3)C2)cc1 (single isomer, unassigned) [compound 131, 4-((1r,3r)-3-(4-(1-cyclopentyl-1,2,3,4-tetrahydroisoquinolin-1-yl)piperidin-1-yl)cyclobutoxy)benzonitrile] | 1.1 µM |
| CCc1cc(S(=O)(=O)c2ccc(N3CC(CN4CCC(C5(C6CCCC6)CN(CC)Cc6ccccc65)CC4)C3)cc2)ccn1 (stereo not shown) [compound 155, 4-cyclopentyl-2-ethyl-4-(1-((1-(4-((2-ethylpyridin-4-yl)sulfonyl)phenyl)azetidin-3-yl)methyl)piperidin-4-yl)-1,2,3,4-tetrahydroisoquinoline] | 0.016 µM |
| CC(=O)O[C@@H]1CCC[C@H]1C(C#N)(c1ccccc1F)C1CCN(CC2CN(c3ccc(S(=O)(=O)C4CC4)cc3)C2)CC1 (mixture of isomers) [compound 311, rac-(1R,2S)-2-(cyano(1-((1-(4-(cyclopropylsulfonyl)phenyl)azetidin-3-yl)methyl)piperidin-4-yl)(2-fluorophenyl)methyl) cyclopentyl acetate] | 5.7 µM |
| N#Cc1cc2cc(CCN3CCC(C4(C5CCCC5)NCCc5ccccc54)CC3)ccc2[nH]1 (stereo not shown) [compound 66, 5-(2-(4-(1-cyclopentyl-1,2,3,4-tetrahydroisoquinolin-1-yl)piperidin-1-yl)ethyl)-1H-indole-2-carbonitrile] | 1.1 µM |
| CCO[C@@H]1CCC[C@H]1C(C#N)(c1ccccc1)C1CCN(CC2CN(c3ccc(S(C)(=O)=O)cc3)C2)CC1 (mixture of isomers) [compound 189, rac-2-((1S,2R)-2-ethoxycyclopentyl)-2-(1-((1-(4-(methylsulfonyl)phenyl)azetidin-3-yl)methyl)piperidin-4-yl)-2-phenylacetonitrile] | 20.5 µM |
| CC(=O)O[C@H]1CCC[C@@H]1C(C#N)(c1cccc(C(F)(F)F)c1)C1CCN(CC2CN(c3ccc(C#N)cc3)C2)CC1 (mixture of isomers) [compound 417, rac-(1S,2R)-2-(cyano(1-((1-(4-cyanophenyl)azetidin-3-yl)methyl)piperidin-4-yl)(3-(trifluoromethyl)phenyl)methyl)cyclopentyl acetate] | 1.61 µM |
| N#Cc1ccc(OCCN2CCC(CC3(C4CCCC4)NCCc4ccccc43)CC2)cc1 (stereo not shown) [compound 105, 4-(2-(4-((1-cyclopentyl-1,2,3,4-tetrahydroisoquinolin-1-yl)methyl)piperidin-1-yl)ethoxy)benzonitrile] | 20.2 µM |
| CNC(=O)O[C@H]1CCC[C@@H]1C(CN1CCCC1)(c1ccccc1)C1CCN(CC2CN(c3ccc(S(=O)(=O)c4ccccc4)cc3)C2)CC1 (mixture of isomers) [compound 361, rac-(1S,2R)-2-(1-phenyl-1-(1-((1-(4-(phenylsulfonyl)phenyl)azetidin-3-yl)methyl)piperidin-4-yl)-2-(pyrrolidin-1-yl)ethyl)cyclopentyl methylcarbamate] | 0.063 µM |
| CN1Cc2cccc(F)c2C(C2CCCC2)(C2CCN(CCCOc3ccc(C#N)cc3)CC2)C1 (stereo not shown) [compound 31, 4-(3-(4-(4-cyclopentyl-5-fluoro-2-methyl-1,2,3,4-tetrahydroisoquinolin-4-yl)piperidin-1-yl)propoxy)benzonitrile] | 0.037 µM |
| CO[C@H]1CCC[C@@H]1C(C#N)(c1ccccc1)C1CCN(CC2CN(c3ccc(S(C)(=O)=O)cc3)C2)CC1 (mixture of isomers) [compound 181, rac-2-((1R,2S)-2-methoxycyclopentyl)-2-(1-((1-(4-(methylsulfonyl)phneyl)azetidin-3-yl)methyl)piperidin-4-yl)-2-phenylacetonitrile] | 18.1 µM |
| O=C(CN1CCC(C2(C3CCCC3)NCCc3ccccc32)CC1)N1CCc2ccccc2C1 (stereo not shown) [compound 84, 2-(4-(1-cyclopentyl-1,2,3,4-tetrahydroisoquinolin-1-yl)piperidin-1-yl)-1-(3,4-dihydroisoquinolin-2(1H)-yl)ethan-1-one] | 8.2 µM |
| CS(=O)(=O)c1ccc(N2CC(CN3CCC(C(C#N)(c4ccccc4)[C@H]4CCC[C@@H]4O)CC3)C2)cc1 (mixture of isomers) [compound 178, rac-2-((1R,2S)-2-hydroxycyclopentyl)-2-(1-((1-(4-(methylsulfonyl)phenyl)azitidin-3-yl)methyl)piperidin-4-yl)-2-phenylacetonitrile] | 6.5 µM |
| COC(=O)N1Cc2ccccc2C(C2CCN(CCCOc3ccc(C#N)cc3)CC2)([C@H]2CCC[C@@H]2OC)C1 (mixture of isomers) [compound 324, methyl rac-4-(1-(3-(4-cyanophenoxy)propyl)piperidin-4-yl)-4-((1R,2S)-2-methoxycyclopentyl)-3,4-dihydroisoquinoline-2(1H)-carboxylate] | 9.6 µM |
| O=S(=O)(c1ccc(N2CC(F)(CN3CCC(C4(C5CCCC5)NCCc5ccccc54)CC3)C2)cc1)C1CC1 (stereo not shown) [compound 140, 1-cyclopentyl-1-(1-((1-(4-(cyclopropylsulfonyl)phenyl)-3-fluoroazetidin-3-yl)methyl)piperidin-4-yl)-1,2,3,4-tetrahydroisoquinoline] | 0.104 µM |
| CN1CCC(C2(C3CCCCN3)CN(C)Cc3ccccc32)CC1 (stereo not shown) [compound 166, 2-methyl-4-(1-methylpiperidin-4-yl)-4-(piperidin-2-yl)-1,2,3,4-tetrahydroisoquinoline] | 1410 µM |
| CN1CCC(C2(C3CCCC3)NCCc3ccccc32)CC1 (stereo not shown) [compound 75, 1-cyclopentyl-1-(1-methylpiperidin-4-yl)-1,2,3,4-tetrahydroisoquinoline] | 142 µM |
| C=C(C)CC1(C2CCN(CCCOc3ccc(C#N)cc3)CC2)NCCc2ccccc21 (stereo not shown) [compound 173, 4-(3-(4-(1-(2-methylallyl)-1,2,3,4-tetrahydroisoquinolin-1-yl)piperidin-1-yl)propoxy)benzonitrile] | 3 µM |
| N#CC(c1ccccc1)(C1CCN(CC2CN(c3ccc(S(=O)(=O)c4ccncc4)cc3)C2)CC1)[C@@H]1CCC[C@H]1OC(=O)C1CCC1 (mixture of isomers) [compound 208, rac-(1R,2S)-2-(cyano(phenyl)(1-((1-(4-(pyridin-4-ylsulfonyl)phenyl)azetidin-3-yl)methyl)piperidin-4-yl)methyl)cyclopentyl cyclobutanecarboxylate] | 0.435 µM |
| N#CC(c1ccccc1)(C1CCN(CC2CN(c3ccc(S(=O)(=O)c4ccncc4)cc3)C2)CC1)[C@H]1CCC[C@@H]1OC(=O)C1CC1 (mixture of isomers) [compound 197, rac-(1S,2R)-2-(cyano(phenyl)(1-((1-(4-(pyridin-4-ylsulfonyl)phenyl)azetidin-3-yl)methyl)piperidin-4-yl)methyl)cyclopentyl cyclopropanecarboxylate] | 0.018 µM |
| CN1COCN([C@H]2CCC[C@@H]2C(C#N)(c2ccccc2)C2CCN(CC3CN(c4ccc(S(=O)(=O)c5ccncc5)cc4)C3)CC2)C1=O (mixture of isomers) [compound 279, rac-2-((1R,2S)-2-(5-methyl-4-oxo-1,3,5-oxadiazinan-3-yl)cyclopentyl)-2-phenyl-2-(1-((1-(4-(pyridin-4-ylsulfonyl)phenyl)azetidin-3-yl)methyl)piperidin-4-yl)acetonitrile] | 0.065 µM |
| O=S(=O)(c1ccccc1)c1ccc(N2CC(CN3CCC(C(CN4CCCC4)(C4=CCCC4)c4ccccc4)CC3)C2)cc1 (stereo not shown) [compound 355, 4-(1-(cyclopent-1-en-1-yl)-1-phenyl-2-(pyrrolidin-1-yl)ethyl)-1-((1-(4-(phenylsulfonyl)phenyl)azetidin-3-yl)methyl)piperidine] | 0.045 µM |
